# According to patent US20100029619A1, “FUSED HETEROCYCLIC COMPOUND” (TAKEDA PHARMACEUTICAL COMPANY LIMTED, priority 2006, published 2010):
row,Compound,melting point
1,"CC(C)(C)c1ccc(C(=O)Nc2cn3c(CO)cccc3n2)cc1 [Example 194, 4-tert-butyl-N-[5-(hydroxymethyl)imidazo[1,2-a]pyridin-2-yl]benzamide]",229 to 230 °C
2,"O=C(Nc1cn2cc(Cl)ccc2n1)c1ccc(C2(C(=O)O)CCCC2)cc1 [Example 191, 1-{4-[(6-chloroimidazo[1,2-a]pyridin-2-yl)carbamoyl]phenyl}cyclopentanecarboxylic acid]",313 °C (dec.)
3,"CC(C)(C(=O)O)c1ccc(C(=O)Nc2cn3cc(Cl)ccc3n2)cc1 [Example 31, 2-{4-[(6-chloroimidazo[1,2-a]pyridin-2-yl)carbamoyl]phenyl}-2-methylpropanoic acid]",311 to 313 °C
4,"CC(C)(C)c1ccc(C(=O)Nc2cn3cc(-c4cccnc4)ccc3n2)cn1 [Example 102, 6-tert-butyl-N-(6-(pyridin-3-yl)imidazo[1,2-a]pyridin-2-yl)nicotinamide]",272 to 274 °C
5,"CC(C)(CCc1nnn[nH]1)c1ccc(C(=O)Nc2cn3cc(Cl)ccc3n2)cc1 [Example 36, N-(6-chloroimidazo[1,2-a]pyridin-2-yl)-4-[1,1-dimethyl-3-(1H-tetrazol-5-yl)propyl]benzamide]",250 to 251 °C
6,"Cc1ccc2nc(NC(=O)c3ccc(C(C)(C)CCc4noc(=O)[nH]4)cc3)cn2c1 [Example 440, 4-[1,1-dimethyl-3-(5-oxo-4,5-dihydro-1,2,4-oxadiazol-3-yl)propyl]-N-(6-methylimidazo[1,2-a]pyridin-2-yl)benzamide]",267 to 268 °C
7,"CC(C)(CCc1nnn[nH]1)c1ccc(C(=O)Nc2cn3cc(-n4ccnc4)ccc3n2)cc1 [Example 46, 4-[1,1-dimethyl-3-(1H-tetrazol-5-yl)propyl]-N-[6-(1H-imidazol-1-yl)imidazo[1,2-a]pyridin-2-yl]benzamide]",266 to 267 °C
8,"CC(C)(CO)c1ccc(C(=O)Nc2cn3cc(-c4cn[nH]c4)ccc3n2)cc1 [Example 464, 4-(2-hydroxy-1,1-dimethylethyl)-N-[6-(1H-pyrazol-4-yl)imidazo[1,2-a]pyridin-2-yl]benzamide]",293 to 296 °C
9,"Cc1cccc2nc(NC(=O)c3ccc(C(C)(C)C(=O)O)cc3)cn12 [Example 186, 2-methyl-2-{4-[(5-methylimidazo[1,2-a]pyridin-2-yl)carbamoyl]phenyl}propanoic acid]",282 to 283 °C
10,"CC(C)(CN)c1ccc(C(=O)Nc2cn3cc(Cl)ccc3n2)cc1 [Example 94, 4-(2-amino-1,1-dimethylethyl)-N-(6-chloroimidazo[1,2-a]pyridin-2-yl)benzamide]",245 to 247 °C
11,"CCNC(=O)C(C)(C)c1ccc(C(=O)Nc2cn3cc(Cl)ccc3n2)cc1 [Example 127, N-(6-chloroimidazo[1,2-a]pyridin-2-yl)-4-[2-(ethylamino)-1,1-dimethyl-2-oxoethyl]benzamide]",228 to 230 °C
12,"O=C(Nc1cn2cc(-n3ccnc3)ccc2n1)c1ccc(-c2ncc[nH]2)cc1 [Example 88, 4-(1H-imidazol-2-yl)-N-[6-(1H-imidazol-1-yl)imidazo[1,2-a]pyridin-2-yl]benzamide]",276 to 279 °C (dec.)
13,"CC(C)(C)c1ccc(C(=O)Nc2cn3nc(-c4cnn(CCO)c4)ccc3n2)cc1 [Example 178, 4-tert-butyl-N-{6-[1-(2-hydroxyethyl)-1H-pyrazol-4-yl]imidazo[1,2-b]pyridazin-2-yl}benzamide]",226 to 229 °C
14,"CC(C)(C)c1ccc(C(=O)Nc2cn3c4c(ccc3n2)OCC4)cc1 [Example 14, 4-tert-butyl-N-(1,2-dihydrofuro[2,3-e]imidazo[1,2-a]pyridin-7-yl)benzamide]",266 to 268 °C
15,"CC(C)(C)c1ccc(C(=O)Nc2cn3cc(-c4cnco4)ccc3n2)cn1 [Example 100, 6-tert-butyl-N-[6-(1,3-oxazol-5-yl)imidazo[1,2-a]pyridin-2-yl]nicotinamide]",251 to 253 °C
16,"CNC(=O)CC(C)(C)c1ccc(C(=O)Nc2cn3cc(Cl)ccc3n2)cc1 [Example 128, N-(6-chloroimidazo[1,2-a]pyridin-2-yl)-4-[1,1-dimethyl-3-(methylamino)-3-oxopropyl]benzamide]",228 to 230 °C
17,"CC(C)(C)c1ccc(C(=O)Nc2cn3cc(C#N)ccc3n2)cc1 [Example 78, 4-tert-butyl-N-[6-cyanoimidazo[1,2-a]pyridin-2-yl]benzamide]",300 to 301 °C
18,"CC(C)(C)c1ccc(C(=O)Nc2cn3nc(NC4CCCCC4)ccc3n2)cc1 [Example 164, 4-tert-butyl-N-[6-(cyclohexylamino)imidazo[1,2-b]pyridazin-2-yl]benzamide]",296 to 297 °C
19,"CC(C)(CCO)c1ccc(C(=O)Nc2cn3cc(-n4ccnc4)ccc3n2)cc1 [Example 468, 4-(3-hydroxy-1,1-dimethylpropyl)-N-[6-(1H-imidazol-1-yl)imidazo[1,2-a]pyridin-2-yl]benzamide]",225 to 227 °C
20,"CC(C)(C(=O)NO)c1ccc(C(=O)Nc2cn3cc(Cl)ccc3n2)cc1 [Example 33, N-(6-chloroimidazo[1,2-a]pyridin-2-yl)-4-[2-(hydroxyamino)-1,1-dimethyl-2-oxoethyl]benzamide]",212 to 213 °C
21,"CC(C)(C)c1ccc(C(=O)Nc2cn3cc(-c4ccsc4)ccc3n2)cc1 [Example 108, 4-tert-butyl-N-[6-(3-thienyl)imidazo[1,2-a]pyridin-2-yl]benzamide]",261 to 263 °C
22,"O=C(Nc1cn2cc(Cl)ccc2n1)c1ccc(C2(C(=O)O)CCC2)cc1 [Example 190, 1-{4-[(6-chloroimidazo[1,2-a]pyridin-2-yl)carbamoyl]phenyl}cyclobutanecarboxylic acid]",317.7 °C (dec.)
23,"CC(C)(CO)c1ccc(C(=O)Nc2cn3cc(C(F)(F)F)ccc3n2)cc1 [Example 461, 4-(2-hydroxy-1,1-dimethylethyl)-N-[6-(trifluoromethyl)imidazo[1,2-a]pyridin-2-yl]benzamide]",227 to 229 °C
24,"Cn1cc(-c2ccc3nc(NC(=O)c4ccc(C(C)(C)C)nc4)cn3c2)cn1 [Example 105, 6-tert-butyl-N-[6-(1-methyl-1H-pyrazol-4-yl)imidazo[1,2-a]pyridin-2-yl]nicotinamide]",228 to 230 °C
25,"CC(C)(C)c1ccc(C(=O)Nc2cn3nc(NC4CCCC4)ccc3n2)cc1 [Example 165, 4-tert-butyl-N-[6-(cyclopentylamino)imidazo[1,2-b]pyridazin-2-yl]benzamide]",272 to 273 °C
26,"CCCNc1ccc2nc(NC(=O)c3ccc(C(C)(C)C)cc3)cn2n1 [Example 167, 4-tert-butyl-N-[6-(propylamino)imidazo[1,2-b]pyridazin-2-yl]benzamide]",243 to 244 °C
27,"CC(C)(C)c1ccc(C(=O)Nc2cn3nc(-n4cnc(CO)c4)ccc3n2)cc1 [Example 145, 4-tert-butyl-N-{6-[4-(hydroxymethyl)-1H-imidazol-1-yl]imidazo[1,2-b]pyridazin-2-yl}benzamide]",298 to 301 °C
